Measured values taken from patent publication US4743585A (Warner-Lambert Company, priority 1986, dated 1988).
Structures can show the parent of a compound that is named as a salt.

Each molecule was assayed against T1, renin (Homo sapiens, UniProt P00797) (assay: in vitro renin inhibitory activity, standard radioimmunoassay for angiotensin I).
T1 sequence (P00797 67-406): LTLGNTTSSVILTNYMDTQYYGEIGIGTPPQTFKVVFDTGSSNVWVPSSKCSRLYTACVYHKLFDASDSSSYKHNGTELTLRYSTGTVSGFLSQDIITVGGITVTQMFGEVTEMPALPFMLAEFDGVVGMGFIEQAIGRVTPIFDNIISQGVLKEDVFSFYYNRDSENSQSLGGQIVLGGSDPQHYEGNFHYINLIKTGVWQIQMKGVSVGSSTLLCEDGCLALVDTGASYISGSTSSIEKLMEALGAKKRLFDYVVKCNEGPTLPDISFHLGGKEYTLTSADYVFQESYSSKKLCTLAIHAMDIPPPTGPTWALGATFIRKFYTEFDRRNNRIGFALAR
Type: biochemical
Protocol: The effectiveness of the aforementioned compounds is determined by a test for in vitro renin inhibitory activity. This activity is determined by a standard radioimmunoassay for angiotensin I. In this assay the enzyme, renin, incubated for two hours at 37° in the presence of a substrate, angiotensinogen, generates the product, angiotensin I. Test compounds are added to the incubation mixture.

| SMILES | IC50 [µM] |
| --- | --- |
| CC(C)CC(=O)N[C@H](CN[C@H](C(=O)N[C@@H](CC(C)C)[C@@H](O)CC(=O)N[C@@H](C)C(=O)N[C@@H](CC(C)C)[C@@H](O)CC(=O)NCc1ccccc1)C(C)C)C(C)C (relative stereo) [Example 52, 5,8,11,16,19-pentaazatricosan-23-amide, 13,2-dihydroxy-2,17-dimethyl-6,9-bis(1-methylethyl)-12,20-bis(2-methylpropyl)-4,10,15,18-tetraoxo-N-(phenylmethyl)-,:6S-(6R*,9R*,12R*,13R*,17R*,20R*,21R*):-,acetate (salt) (2:3)] | 18 |
| CC(C)CC(NC(=O)CC(O)C(CC(C)C)NC(=O)CC(O)C(O)C(CC1CCCCC1)NC(=O)OC(C)(C)C)C(=O)NCc1ccccc1 (single isomer, unassigned) [Example 17, 15-(cyclohexylmethyl)-8,13,14-trihydroxy-4,9-bis(2-methylpropyl)-3,6,11-trioxo-1-phenyl-2,5,10,16-tetraazaheptadecan-17-oic acid, 1,1-dimethylethyl ester] | 6.5 |
| CC(C)C[C@H](NC(=O)C[C@H](O)[C@H](CC(C)C)NC(=O)C(Cc1c[nH]cn1)CC(O)[C@H](Cc1ccccc1)NC(=O)OC(C)(C)C)C(=O)NCc1ccccc1 (single isomer, unassigned) [Example 30, BOC-PHE[CHOHCH2 ]HIS-STA-LEU-NHCH2 Ph] | 30 |
| CC(C)CC(=O)N[C@@H](CC(C)C)C(=O)CC(Cc1ccccc1)C(=O)N[C@@H](CC(C)C)[C@@H](O)CC(=O)N[C@@H](CC(C)C)C(=O)NCc1ccccc1 (single isomer, unassigned) [Example 32] | 7.1 |
| CC(C)C[C@H](NC(=O)C/C=C/[C@H](Cc1ccccc1)NC(=O)OC(C)(C)C)[C@@H](O)CC(=O)N[C@@H](C)C(=O)N[C@@H](CC(C)C)[C@@H](O)CC(=O)NCc1ccccc1 [Example 1, [5S-[5R*,6R*,9R*,13R*,14R*(E),20R*]]-5,13-dihydroxy-9-methyl-6,14-bis(2-methylpropyl)-3,8,11,16-tetraoxo-1-phenyl-20-(phenylmethyl)-2,7,10,15,21-pentaazadocos-18-en-22-oic acid, 1,1-dimethylethyl ester] | 8.2 |
| CC(C)C[C@H](NC(=O)C(/C=C/[C@H](Cc1ccccc1)NC(=O)OC(C)(C)C)Cc1ccccc1)[C@@H](O)CC(=O)N[C@@H](C)C(=O)N[C@@H](CC(C)C)[C@@H](O)CC(=O)NCc1ccccc1 (some centres unmarked) [Example 2, (E)-5,13-dihydroxy-9-methyl-6,14-bis(2-methylpropyl)-3,8,11,16-tetraoxo-1-phenyl-17,20-bis(phenylmethyl)-2,7,10,15,21-pentaazadocos-18-en-22-oic acid, 1,1-dimethylethyl ester] | 12 |
| CC(C)C[C@H](NC(=O)C[C@H](O)[C@H](CC(C)C)NC(=O)C/C=C/[C@H](Cc1c[nH]c2ccccc12)NC(=O)OC(C)(C)C)C(=O)NCc1ccccc1 [Example 7, [4S-(4R*,8R*,9R*,13E,15R*)]-8-hydroxy-15-(1H-indol-3-ylmethyl)-4,9-bis(2-methylpropyl)-3,6,11-trioxo-1-phenyl-2,5,10-16-tetraazaheptadec-13-en-17-oic acid, 1,1-dimethylethyl ester] | 20 |
| CC(C)C[C@H](NC(=O)C[C@H](O)[C@H](CC1CCCCC1)NC(=O)C/C=C/[C@H](Cc1ccccc1)NC(=O)OC(C)(C)C)C(=O)NCc1cccc(CNC(=O)OCc2ccccc2)c1 [Example 8] | 8 |
| CC(C)C[C@H](NC(=O)C[C@H](O)[C@H](CC1CCCCC1)NC(=O)CC1OC1[C@H](Cc1ccccc1)NC(=O)OC(C)(C)C)C(=O)NCc1cccc(CNC(=O)OCc2ccccc2)c1 (some centres unmarked) [Example 13] | 2.6 |
| CC(C)CC(NC(=O)CC(O)C(CC(C)C)NC(=O)CC(O)C(O)C(Cc1c[nH]c2ccccc12)NC(=O)OC(C)(C)C)C(=O)NCc1ccccc1 (centres unmarked) [Example 18, 8,13,14-trihydroxy-15-(1H-indol-3-ylmethyl)-4,9-bis-(2-methylpropyl)-3,6,11-trioxo-1-phenyl-2,5,10,16-tetraazaheptadecan-17-oic acid, 1,1-dimethylethyl ester] | 2.3 |
| CC(C)CC(NC(=O)CC(O)C(CC(C)C)NC(=O)/C=C/C(O)C(Cc1ccccc1)NC(=O)OC(C)(C)C)C(=O)NCc1ccccc1 (centres unmarked) [Example 19, (E)-8,14-dihydroxy-4,9-bis(2-methylpropyl)-3,6,11-trioxo-1-phenyl-15-(phenylmethyl)-2,5,10,16-tetraazaheptadec-12-en-17-oic acid, 1,1-dimethylethyl ester] | 2.1 |
| CC(C)C[C@H](NC(=O)C[C@H](O)[C@H](CC1CCCCC1)NC(=O)/C=C/C(O)[C@H](Cc1ccccc1)NC(=O)OC(C)(C)C)C(=O)NCc1cccc(CNC(=O)OCc2ccccc2)c1 (some centres unmarked) [Example 21] | 0.47 |
| CC(C)C[C@H](NC(=O)C[C@H](O)[C@H](CC1CCCCC1)NC(=O)CCC(O)[C@H](Cc1ccccc1)NC(=O)OC(C)(C)C)C(=O)NCc1cccc(CN)c1 (some centres unmarked) [Example 24] | 0.022 |
| CC(C)CC(=O)N[C@@H](Cc1ccccc1)C(=O)N[C@@H](Cc1c[nH]cn1)C(=O)N[C@@H](CC1CCCCC1)C(O)CCC(=O)NCc1ccccc1 (stereo partly drawn) [Example 27, L-histidinamide,N-(3-methyl-1-oxobutyl)-L-phenylalanyl-N-[1-(cyclohexylmethyl)-2-hydroxy-5-oxo-5-[(phenylmethyl)amino]pentyl]] | 0.25 |
| CC(C)CC(=O)N[C@@H](Cc1ccccc1)C(=O)N[C@@H](Cc1c[nH]cn1)C(=O)N[C@@H](CC1CCCCC1)C(O)CCC(=O)N[C@@H](CC(C)C)C(=O)NCc1ccccc1 (some centres unmarked) [Example 28] | 0.014 |
| CC(C)C[C@H](NC(=O)C[C@H](O)[C@H](CC1CCCCC1)NC(=O)CCC[C@H](Cc1ccccc1)NC(=O)OC(C)(C)C)C(=O)NCc1cccc(CN)c1 [Example 36] | 63 |
| CC(C)CC(=O)NC(Cc1ccccc1)CS(=O)(=O)C(Cc1ccccc1)C(=O)NC(CC(C)C)C(O)CC(=O)NC(C)C(=O)NC(CC(C)C)C(O)CC(=O)NCc1ccccc1 (centres unmarked) [Example 38, 13,21-dihydroxy-2,17-dimethyl-12,20-bis(2-methylpropyl)-4,10,15,18-tetraoxo-N,6,9-tris(phenylmethyl)-8-thia-5,11,16,19-tetraazatricosan-23-amide-8,8-dioxide] | 1.5 |
| CC(C)CC(=O)NC(CSC(Cc1ccccc1)C(=O)NC(CC(C)C)C(O)CC(=O)NC(CC(C)C)C(=O)NCc1ccccc1)Cc1ccccc1 (centres unmarked) [Example 39, 6-hydroxy-17-methyl-2,7-bis(2-methylpropyl)-4,9,15-trioxo-N,10,13-tris(phenylmethyl)-11-thia-3,8,14-triazaoctadecanamide] | 30 |
| CC(C)CC(=O)NC(Cc1ccccc1)C[S+]([O-])C(Cc1ccccc1)C(=O)NC(CC(C)C)C(O)CC(=O)NC(C)C(=O)NC(CC(C)C)C(O)CC(=O)NCc1ccccc1 (centres unmarked) [Example 40, 13,21-dihydroxy-2,17-dimethyl-12,20-bis(2-methylpropyl)-4,10,15,18-tetraoxo-N,6,9-tris(phenylmethyl)-8-thia-5,11,16,19-tetraazatricosan-23-amide-8-oxide] | 2 |
| CC(C)CC(NC(=O)CC(O)C(CC(C)C)NC(=O)C(Cc1ccccc1)SCC(Cc1ccccc1)NC(=O)CCCC(=O)O)C(=O)NCc1ccccc1 (centres unmarked) [Example 44, 8-hydroxy-4,9-bis(2-methylpropyl)-3,6,11,17-tetraoxo-1-phenyl-12,15-bis(phenylmethyl)-13-thia-2,5,10,16-tetraazaheneicosan-21-oic acid] | 30 |
| CC(C)CC(=O)NC(CCCC(=O)NC(CC(C)C)C(O)CC(=O)NC(CC(C)C)C(=O)NCc1ccccc1)Cc1ccccc1 (centres unmarked) [Example 47, N-[2-hydroxy-4-[[3-methyl-1-[[(phenylmethyl)amino]carbonyl]butyl]amino]-1-(2-methylpropyl)-4-oxobutyl]-δ-[(3-methyl-1-oxobutyl)amino]benzenehexanamide] | 26 |
| CC(C)CC(NC(=O)CCC(=O)C(Cc1ccccc1)NC(=O)c1ccccc1)C(O)CC(=O)NC(C)C(=O)NC(CC(C)C)C(O)CC(=O)NCc1ccccc1 (centres unmarked) [Example 48] | 30 |
| CC(C)C[C@H](NC(=O)CCC(=O)C(Cc1ccccc1)NC(=O)OC(C)(C)C)[C@@H](O)CC(=O)N[C@@H](C)C(=O)N[C@@H](CC(C)C)[C@@H](O)CC(=O)NCc1ccccc1 (stereo partly drawn) [Example 50, 5,13-dihydroxy-9-methyl-6,14-bis(2-methylpropyl)-3,8,11,16,19-pentaoxo-1-phenyl-20-(phenylmethyl)-2,7,10,15,21-pentaazadocosan-22-oic acid, 1,1-dimethylethyl ester; (5S,7S,13S,14S,20RS)] | 30 |
| CC(C)CC(CC(=O)[C@H](CC1CCCCC1)NC(=O)OC(C)(C)C)C(=O)N[C@@H](CC(C)C)[C@@H](O)CC(=O)N[C@@H](CC(C)C)C(=O)NCc1ccccc1 (some centres unmarked) [Example 51] | 26 |
| CCOC(=O)C[C@H](O)[C@H](CC(C)C)NC(=O)[C@@H](NC[C@@H](NC(=O)CC(C)C)C(C)C)C(C)C [Example 53, Heptanoic acid, 3-hydroxy-6-methyl-4-[[3-methyl-2-[[3-methyl-2-[(3-methyl-1-oxobutyl)amino]butyl]amino]-1-oxobutyl]amino]-, ethyl ester, [3S-[3R*,- 4R*[R*[R*[(R*)]]]]-] | 28 |
| CC(C)CC(=O)N[C@H](CN[C@H](C(=O)N[C@@H](CC(C)C)[C@@H](O)CC(=O)NCc1ccccc1)C(C)C)C(C)C [Example 54, IVA-VAL[CH2 NH]VAL-STA-NHCH2 Ph] | 30 |
